The nature of data set [1]: Lipophilicity, log D of compound by chromatographic method. The class given is physicochemical.
Data set [2] addresses PI3-kinase p110-delta/p85-alpha (Homo sapiens, UniProt O00329). Put plainly: Inhibition of recombinant human N-terminal His6-tagged full length P110delta/full length untagged human p85alpha expressed in baculovirus infected Sf21 insect cells using PIP2 as substrate preincubated for 15 mins followed by substrate addition and measured after 60 mins by HTRF assay. On the technique in general: Time-resolved FRET reads energy transfer from a long-lived donor to a nearby acceptor.

Another data set deals with Mus musculus. Put plainly: Antiinflammatory activity in house dust-mite-induced Balb/c mouse model of inflammation assessed as reduction in BAL IL-5 level at 0.1 to 10 mg/kg administered 7 days prior to HDM re-challenge and measured 4 hrs post-HDM re-challenge. As to conditions: dose 0.1-10 mg/kg, time 7.0 day. The class given is functional, organism-based.
Data set [3] concerns the target Phosphatidylinositol 4,5-bisphosphate 3-kinase catalytic subunit gamma isoform (Homo sapiens, UniProt P48736). Put plainly: Inhibition of recombinant human N-terminal His6-tagged full length P120gamma expressed in baculovirus infected Sf21 insect cells using PIP2 as substrate preincubated for 15 mins followed by substrate addition and measured after 60 mins by HTRF assay.

A short description of data set [4]: Genotoxicity in Salmonella typhimurium by Ames test. The class given is toxicity. As to conditions: salmonella enterica subsp. enterica serovar typhimurium. (The Ames test detects mutagens through reverse mutation in bacteria.)
Data set [5] can be described thus: Intrinsic clearance in Wistar Han rat liver microsomes at 0.5 uM measured up to 45 mins in presence of NADPH by LC-MS/MS analysis. It is filed as ADME, Microsome. As to conditions: read-out: CLH.
Data set [6] can be described thus: Solubility in pH 6.5 FaSSIF incubated for 4 hrs using crystalline free base of sample by UV-HPLC method. It is filed as physicochemical.
A short description of data set [7]: Fraction unbound in human blood. The class given is ADME, tissue-based.
Data set [8] is described as follows: Permeability of compound in MDCK cells. It is filed as ADME, cell-based, Canis lupus familiaris. As to conditions: dog, read-out: permeability.
In data set [9] the target is PI3-kinase p110-alpha/p85-alpha (Homo sapiens, UniProt P42336). Briefly: Inhibition of recombinant human N-terminal His6-tagged full length P110alpha/full length untagged human p85alpha expressed in baculovirus infected Sf21 insect cells using PIP2 as substrate preincubated for 15 mins followed by substrate addition and measured after 60 mins by HTRF assay.
Data set [10] can be described thus: Volume of distribution at steady state in Wistar Han rat at 1 mg/kg, po administered via gavage or 1 mg/kg, iv administered as infusion for 1 hr by RP LC-MS/MS analysis. As to conditions: in vivo, read-out: Vdss. It is filed as ADME, organism-based.
The target in data set [11] is T1, Phosphatidylinositol 4,5-bisphosphate 3-kinase catalytic subunit delta isoform (Homo sapiens, UniProt O00329).
T1 sequence (O00329 whole entry): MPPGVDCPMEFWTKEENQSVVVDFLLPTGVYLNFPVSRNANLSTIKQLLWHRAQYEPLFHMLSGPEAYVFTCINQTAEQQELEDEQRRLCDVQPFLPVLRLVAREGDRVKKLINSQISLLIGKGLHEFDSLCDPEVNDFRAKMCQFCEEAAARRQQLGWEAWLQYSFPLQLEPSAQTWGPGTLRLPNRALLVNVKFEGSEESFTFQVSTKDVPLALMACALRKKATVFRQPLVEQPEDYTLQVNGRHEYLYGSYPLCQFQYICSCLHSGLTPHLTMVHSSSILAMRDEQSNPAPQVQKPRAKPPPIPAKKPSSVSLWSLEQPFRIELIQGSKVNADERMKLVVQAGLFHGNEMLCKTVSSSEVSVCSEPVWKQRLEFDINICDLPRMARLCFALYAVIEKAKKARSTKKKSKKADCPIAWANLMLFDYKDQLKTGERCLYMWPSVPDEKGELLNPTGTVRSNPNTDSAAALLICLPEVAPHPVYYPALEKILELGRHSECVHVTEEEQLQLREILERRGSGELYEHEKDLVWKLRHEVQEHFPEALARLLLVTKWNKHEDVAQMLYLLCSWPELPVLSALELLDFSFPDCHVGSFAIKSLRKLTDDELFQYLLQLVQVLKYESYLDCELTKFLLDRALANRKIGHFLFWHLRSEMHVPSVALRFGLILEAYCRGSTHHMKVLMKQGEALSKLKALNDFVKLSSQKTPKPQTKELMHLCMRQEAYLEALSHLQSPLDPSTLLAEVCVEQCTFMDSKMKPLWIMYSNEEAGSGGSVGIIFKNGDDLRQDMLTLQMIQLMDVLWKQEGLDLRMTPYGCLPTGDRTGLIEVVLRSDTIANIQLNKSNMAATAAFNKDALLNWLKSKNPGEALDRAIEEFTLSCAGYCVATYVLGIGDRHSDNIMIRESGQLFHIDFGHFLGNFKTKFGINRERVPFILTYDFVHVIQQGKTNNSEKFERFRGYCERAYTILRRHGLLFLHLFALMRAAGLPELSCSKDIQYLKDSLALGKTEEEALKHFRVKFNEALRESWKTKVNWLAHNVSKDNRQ
Put plainly: Inhibition of PI3Kdelta in human whole blood assessed as reduction in cytostim-stimulated IFNgamma production preincubated for 1 hr followed by cytostim stimulation and measured after 20 hrs by electrochemiluminescence assay.

A further data set concerns the target PI3K p110 beta/p85 alpha (Homo sapiens, UniProt P42338). Briefly: Inhibition of recombinant human N-terminal His6-tagged full length P110beta/full length untagged human p85alpha expressed in baculovirus infected Sf21 insect cells using PIP2 as substrate preincubated for 15 mins followed by substrate addition and measured after 60 mins by HTRF assay.
The nature of another data set: in vitro. To be noted: human, pooled liver microsomes. (Liver microsomes are a subcellular fraction often used to study metabolism.)
The nature of data set [12]: Half life in Wistar Han rat at 1 mg/kg, po administered via gavage or 1 mg/kg, iv administered as infusion for 1 hr by RP LC-MS/MS analysis. The class given is ADME, organism-based. To be noted: in vivo.
Data set [13] can be described thus: Fraction unbound in rat blood. It is filed as ADME, tissue-based.
A short description of data set [14]: AUC in Wistar Han rat at 1 mg/kg, po administered via gavage or 1 mg/kg, iv administered as infusion for 1 hr by RP LC-MS/MS analysis. The class given is ADME, organism-based. Also noted: dose 1 mg/kg. To be noted: in vivo.
Data set [15] can be described thus: Oral bioavailability in Wistar Han rat at 1 mg/kg administered via gavage by RP LC-MS/MS analysis. The class given is ADME, organism-based. To be noted: in vivo.
A further data set addresses Cytochrome P450 3A4 (Homo sapiens, UniProt P08684). Put plainly: Time-dependent inhibition of CYP3A4 in human liver microsomes using midazolam as substrate. It is filed as ADME.
A short description of data set [16]: Clearance in Wistar Han rat at 1 mg/kg, po administered via gavage or 1 mg/kg, iv administered as infusion for 1 hr by RP LC-MS/MS analysis. It is filed as ADME, organism-based. To be noted: in vivo.
The target of a further data set is serum albumin (Homo sapiens, UniProt P02768). Put plainly: Binding affinity to human serum albumin by HPLC analysis. As to conditions: read-out: PB (converted). It is filed as ADME, cell-free.
The nature of data set [17]: Clearance in Wistar Han rat at 1 mg/kg, iv administered as infusion for 1 hr by RP LC-MS/MS analysis. The class given is ADME, organism-based. To be noted: in vivo.
Data set [18] in a line: Half life in Wistar Han rat at 1 mg/kg, iv administered as infusion for 1 hr by RP LC-MS/MS analysis. It is filed as ADME, organism-based. As to conditions: in vivo.
Data set [19] concerns the target Voltage-gated inwardly rectifying potassium channel KCNH2 (Homo sapiens, UniProt Q12809). Briefly: Inhibition of human ERG.
The target in data set [20] is T1, Phosphatidylinositol 4,5-bisphosphate 3-kinase catalytic subunit delta isoform. Briefly: Inhibition of PI3Kdelta in human HL-60 cell extract measured after 2 hrs by kinobeads based chemoproteomic competition binding assay. It is filed as tissue-based.
Data set [21] deals with Phosphatidylinositol 3-kinase catalytic subunit type 3 (Homo sapiens, UniProt Q8NEB9). Put plainly: Inhibition of VPS34 in human HL-60 cell extract measured after 2 hrs by kinobeads based chemoproteomic competition binding assay. The class given is tissue-based.
The nature of data set [22]: Solubility in pH 6.5 FaSSIF incubated for 4 hrs using amorphous form of sample by UV-HPLC method. It is filed as physicochemical.
Data set [23] can be described thus: Volume of distribution at steady state in Wistar Han rat at 1 mg/kg, iv administered as infusion for 1 hr by RP LC-MS/MS analysis. To be noted: in vivo, read-out: Vdss. It is filed as ADME, organism-based.

Values after ≈ are worked out from the molar mass of the structure shown. Active and inactive are the calls of the source. The rule behind the calls is not given here. Bounds are passed on as bounds.

Chain of PI3-kinase p110-delta/p85-alpha (P27986 whole entry, one chain of several): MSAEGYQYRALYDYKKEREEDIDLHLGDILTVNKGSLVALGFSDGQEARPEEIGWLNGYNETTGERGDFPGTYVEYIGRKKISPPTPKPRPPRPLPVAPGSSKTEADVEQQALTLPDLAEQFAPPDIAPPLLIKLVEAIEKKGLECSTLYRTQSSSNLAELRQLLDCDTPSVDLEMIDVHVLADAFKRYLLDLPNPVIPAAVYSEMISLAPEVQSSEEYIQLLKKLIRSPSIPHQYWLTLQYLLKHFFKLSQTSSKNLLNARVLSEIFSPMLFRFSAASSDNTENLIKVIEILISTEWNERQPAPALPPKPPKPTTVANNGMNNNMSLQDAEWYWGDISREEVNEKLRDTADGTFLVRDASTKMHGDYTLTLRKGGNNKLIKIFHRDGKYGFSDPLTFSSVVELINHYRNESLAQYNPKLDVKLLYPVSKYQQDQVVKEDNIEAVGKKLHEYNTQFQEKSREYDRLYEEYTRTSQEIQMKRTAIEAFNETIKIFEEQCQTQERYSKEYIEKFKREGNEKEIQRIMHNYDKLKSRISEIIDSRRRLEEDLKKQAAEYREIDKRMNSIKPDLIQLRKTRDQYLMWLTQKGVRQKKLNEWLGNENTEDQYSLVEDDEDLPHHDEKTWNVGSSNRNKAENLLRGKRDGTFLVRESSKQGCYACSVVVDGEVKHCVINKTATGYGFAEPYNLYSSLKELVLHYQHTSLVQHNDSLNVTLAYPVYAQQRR
Chain of Phosphatidylinositol 4,5-bisphosphate 3-kinase catalytic subunit gamma isoform (P48736 whole entry, canonical isoform): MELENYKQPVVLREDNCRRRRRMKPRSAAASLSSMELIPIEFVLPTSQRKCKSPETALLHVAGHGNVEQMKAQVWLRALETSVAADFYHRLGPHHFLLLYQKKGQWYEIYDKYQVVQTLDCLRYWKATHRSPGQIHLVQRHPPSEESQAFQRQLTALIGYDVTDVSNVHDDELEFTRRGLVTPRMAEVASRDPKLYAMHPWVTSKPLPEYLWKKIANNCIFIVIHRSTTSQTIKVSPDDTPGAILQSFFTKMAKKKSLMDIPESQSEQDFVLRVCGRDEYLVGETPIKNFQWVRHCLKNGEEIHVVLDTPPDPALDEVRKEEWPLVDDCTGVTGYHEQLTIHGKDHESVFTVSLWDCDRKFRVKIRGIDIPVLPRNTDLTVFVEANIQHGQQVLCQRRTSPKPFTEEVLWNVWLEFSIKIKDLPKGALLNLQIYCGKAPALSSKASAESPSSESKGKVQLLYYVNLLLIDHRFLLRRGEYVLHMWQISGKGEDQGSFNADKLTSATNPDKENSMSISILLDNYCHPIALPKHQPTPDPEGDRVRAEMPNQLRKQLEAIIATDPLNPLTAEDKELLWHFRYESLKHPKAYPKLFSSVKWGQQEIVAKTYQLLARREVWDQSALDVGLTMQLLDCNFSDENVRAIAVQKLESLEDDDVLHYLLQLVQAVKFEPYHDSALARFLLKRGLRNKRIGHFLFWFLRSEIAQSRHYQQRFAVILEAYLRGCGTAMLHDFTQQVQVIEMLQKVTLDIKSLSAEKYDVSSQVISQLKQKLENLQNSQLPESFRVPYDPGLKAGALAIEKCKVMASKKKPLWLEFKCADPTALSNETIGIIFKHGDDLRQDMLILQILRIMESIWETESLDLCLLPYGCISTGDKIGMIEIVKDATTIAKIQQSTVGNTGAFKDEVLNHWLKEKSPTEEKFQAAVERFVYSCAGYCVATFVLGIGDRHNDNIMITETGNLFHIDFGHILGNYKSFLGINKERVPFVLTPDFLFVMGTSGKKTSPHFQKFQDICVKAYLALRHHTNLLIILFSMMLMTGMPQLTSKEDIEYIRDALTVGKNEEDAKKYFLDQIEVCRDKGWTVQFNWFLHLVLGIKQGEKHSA
Chain of PI3K p110 beta/p85 alpha (P27986 whole entry): as the sequence (P27986 whole entry, one chain of several) above
Chain of PI3K p110 beta/p85 alpha (P42338 whole entry): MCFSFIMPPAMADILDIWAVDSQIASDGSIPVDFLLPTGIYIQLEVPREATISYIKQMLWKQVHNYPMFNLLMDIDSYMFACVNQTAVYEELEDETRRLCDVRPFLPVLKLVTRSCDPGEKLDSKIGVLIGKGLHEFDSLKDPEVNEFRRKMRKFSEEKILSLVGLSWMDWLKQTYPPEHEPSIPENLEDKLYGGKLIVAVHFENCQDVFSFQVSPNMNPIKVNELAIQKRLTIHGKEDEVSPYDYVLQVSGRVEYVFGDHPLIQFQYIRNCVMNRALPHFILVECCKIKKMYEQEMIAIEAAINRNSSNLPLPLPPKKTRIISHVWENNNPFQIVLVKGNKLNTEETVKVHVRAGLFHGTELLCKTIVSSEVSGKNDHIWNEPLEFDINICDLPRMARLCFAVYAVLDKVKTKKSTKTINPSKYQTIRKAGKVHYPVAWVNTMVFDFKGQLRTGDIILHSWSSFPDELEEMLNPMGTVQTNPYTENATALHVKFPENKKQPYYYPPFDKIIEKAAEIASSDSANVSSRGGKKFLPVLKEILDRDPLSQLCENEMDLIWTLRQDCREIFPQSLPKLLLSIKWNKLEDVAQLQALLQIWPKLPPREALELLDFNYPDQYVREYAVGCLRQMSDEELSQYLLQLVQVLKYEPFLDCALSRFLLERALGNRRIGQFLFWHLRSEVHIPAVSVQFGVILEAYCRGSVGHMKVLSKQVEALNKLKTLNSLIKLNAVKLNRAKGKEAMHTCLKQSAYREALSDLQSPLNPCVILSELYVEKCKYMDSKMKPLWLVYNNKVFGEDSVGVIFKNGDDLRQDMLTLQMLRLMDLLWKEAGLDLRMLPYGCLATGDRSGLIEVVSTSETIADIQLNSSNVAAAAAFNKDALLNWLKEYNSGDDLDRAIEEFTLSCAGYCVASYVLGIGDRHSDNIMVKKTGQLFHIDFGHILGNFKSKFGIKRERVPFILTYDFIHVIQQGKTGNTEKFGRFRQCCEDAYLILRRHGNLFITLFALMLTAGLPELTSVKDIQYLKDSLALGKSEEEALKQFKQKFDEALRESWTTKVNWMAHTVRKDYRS
Chain of PI3-kinase p110-alpha/p85-alpha (P27986 whole entry, the tested form may be a part): as the sequence (P27986 whole entry, one chain of several) above
Chain of PI3-kinase p110-alpha/p85-alpha (P42336 whole entry, the tested form may be a part): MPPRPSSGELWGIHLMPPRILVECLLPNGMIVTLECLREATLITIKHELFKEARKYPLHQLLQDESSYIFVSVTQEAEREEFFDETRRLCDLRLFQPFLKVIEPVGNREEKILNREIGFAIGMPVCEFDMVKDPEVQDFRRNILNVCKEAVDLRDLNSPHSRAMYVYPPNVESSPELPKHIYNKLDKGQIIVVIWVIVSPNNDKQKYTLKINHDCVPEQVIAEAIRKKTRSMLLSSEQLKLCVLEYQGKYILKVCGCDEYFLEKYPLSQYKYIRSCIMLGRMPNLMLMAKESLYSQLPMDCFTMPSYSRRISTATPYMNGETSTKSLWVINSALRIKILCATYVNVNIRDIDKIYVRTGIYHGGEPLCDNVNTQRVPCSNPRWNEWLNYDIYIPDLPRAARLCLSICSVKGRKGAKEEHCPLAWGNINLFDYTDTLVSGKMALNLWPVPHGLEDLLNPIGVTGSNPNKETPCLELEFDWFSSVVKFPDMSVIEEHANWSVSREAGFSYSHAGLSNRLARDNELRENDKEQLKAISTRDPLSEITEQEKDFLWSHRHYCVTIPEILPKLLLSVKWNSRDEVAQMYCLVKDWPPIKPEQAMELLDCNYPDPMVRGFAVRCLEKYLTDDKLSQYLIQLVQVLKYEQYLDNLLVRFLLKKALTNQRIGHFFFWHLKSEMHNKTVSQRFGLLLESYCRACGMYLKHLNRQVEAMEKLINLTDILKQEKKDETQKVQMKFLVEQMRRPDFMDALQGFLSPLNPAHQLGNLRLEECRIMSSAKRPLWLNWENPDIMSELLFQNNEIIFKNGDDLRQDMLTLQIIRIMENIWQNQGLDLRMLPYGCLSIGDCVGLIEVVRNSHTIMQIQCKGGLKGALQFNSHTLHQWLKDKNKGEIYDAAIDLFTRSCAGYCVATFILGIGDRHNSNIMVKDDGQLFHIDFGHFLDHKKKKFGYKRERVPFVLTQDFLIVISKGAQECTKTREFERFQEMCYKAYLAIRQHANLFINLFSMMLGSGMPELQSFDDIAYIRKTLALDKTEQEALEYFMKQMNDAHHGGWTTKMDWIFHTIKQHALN
Chain of Phosphatidylinositol 3-kinase catalytic subunit type 3 (Q8NEB9 whole entry): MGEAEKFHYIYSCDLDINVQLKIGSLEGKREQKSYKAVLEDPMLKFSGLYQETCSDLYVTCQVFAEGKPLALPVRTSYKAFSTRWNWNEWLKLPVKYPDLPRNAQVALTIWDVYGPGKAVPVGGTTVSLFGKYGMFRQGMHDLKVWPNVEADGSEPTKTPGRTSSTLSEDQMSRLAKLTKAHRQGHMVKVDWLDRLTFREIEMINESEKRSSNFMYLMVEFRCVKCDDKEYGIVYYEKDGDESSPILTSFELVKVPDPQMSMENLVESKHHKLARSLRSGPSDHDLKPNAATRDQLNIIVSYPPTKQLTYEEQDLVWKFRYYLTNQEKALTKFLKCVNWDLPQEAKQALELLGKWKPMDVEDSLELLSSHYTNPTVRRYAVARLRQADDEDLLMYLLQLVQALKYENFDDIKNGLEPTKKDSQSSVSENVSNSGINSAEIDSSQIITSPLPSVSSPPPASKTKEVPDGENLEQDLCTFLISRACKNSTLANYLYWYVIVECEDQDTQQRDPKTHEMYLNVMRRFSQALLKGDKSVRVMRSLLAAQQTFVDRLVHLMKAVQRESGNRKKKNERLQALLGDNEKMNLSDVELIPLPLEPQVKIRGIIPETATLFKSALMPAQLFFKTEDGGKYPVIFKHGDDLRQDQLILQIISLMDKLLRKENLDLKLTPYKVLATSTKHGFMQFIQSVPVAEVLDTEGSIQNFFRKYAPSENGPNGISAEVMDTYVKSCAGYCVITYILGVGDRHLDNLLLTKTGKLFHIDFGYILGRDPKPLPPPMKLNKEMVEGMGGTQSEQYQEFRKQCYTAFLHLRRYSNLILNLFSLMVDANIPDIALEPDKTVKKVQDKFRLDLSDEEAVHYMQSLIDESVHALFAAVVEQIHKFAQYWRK
Description for in vitro: Intrinsic clearance in pooled human liver microsomes at 0.5 uM measured up to 45 mins in presence of NADPH by LC-MS/MS analysis

The compound `COc1ncc(N2CCOCC2)cc1S(=O)(=O)Nc1ccnc(-c2ccc(CN3CCN(C(C)C)CC3)cc2F)c1` came in with a chromatographic logD in data set [1] of 1.9. The IC50 in data set [2] was 0.794 nM; in data set [3] it was 2000 nM; in data set [9], 1000 nM; in data set [11] it was 6.31 nM; on PI3K p110 beta/p85 alpha, 5010 nM. The Ki in data set [2] was 0.0126 nM. For the same compound, the outcome in the data set with Mus musculus was Active. The Activity entry in data set [4] is listed as “Non-Toxic”. Further, the CLint scaled at 0.5 µM in data set [5] was below 0.46 mL/min/kg. This compound also had a thermodynamic solubility at 4 h in [6] of 899 µg/mL (≈ 1540 µM). Moreover, the fraction unbound in [7] turned out to be 0.132; in data set [13], 0.021. The Papp in data set [8] came to 2.3 ×10⁻⁶ cm/s. The Vd in data set [10] amounted to 0.5 L/kg. In addition, in the data set “in vitro”, the CLint scaled at 0.75 h, 0.5 µM was below 0.4 mL/min/kg. This compound also showed a half-life in [12] of 2.6 h. In [14], this compound gave an AUC of 2020 ng·h/mL. The same compound registered a bioavailability in data set [15] of 46%. Also, at Cytochrome P450 3A4, the TDI result is “Not Active”. In [16], this compound had a clearance of 3.8 mL/min/kg.

In data set [1], `COc1ncc(C2=CCOCC2)cc1S(=O)(=O)Nc1cncc(C#CCN2CCN(C(C)C)CC2)c1` had a chromatographic logD of 1.8. In addition, the IC50 was 6.31 nM in [2]; 25100 nM in data set [3]; above 50100 nM in [19]; 1.58 nM in [20]; 5010 nM in data set [9]; 50.1 nM in [11]. Further, the concentration for half-maximal inhibition (IC50) in [21] is 100 nM; on PI3K p110 beta/p85 alpha it was 5010 nM. Besides, the fraction unbound on serum albumin was 0.17. In data set [17], the clearance is 8.6 mL/min/kg. Further, the CLint scaled at 0.5 µM in [5] was 0.54 mL/min/kg. Moreover, the half-life in data set [18] was 1 h. The same compound showed a solubility at 4 h in [22] above 1000 µg/mL. The compound further yielded a CLint scaled at 0.75 h, 0.5 µM in “in vitro” below 0.4 mL/min/kg. In addition, the Vd in [23] was found to be 0.3 L/kg.

What is called chromatographic logD is lipophilicity estimated from chromatographic retention. Lower therefore signals lower lipophilicity. Usually IC50 stands for the point on the concentration scale where inhibition reaches its midpoint. By Ki is commonly meant the equilibrium dissociation constant of an inhibitor or competing ligand from its target. In general, solubility (thermodynamic) refers to solubility found after equilibrating the solid with the medium. Broadly, the half-life is how long it takes for the measured level to halve. Higher therefore signals slow loss. What is called AUC is the area under the concentration-time curve, a measure of exposure. Read a high AUC as more exposure. A word on the bioavailability: it is the share of a dose that reaches the circulation, judged against a reference dose that is usually intravenous. The low end stands for poor availability, the high end for good availability. In general, solubility refers to the concentration that dissolves in the medium under given conditions.

The values above are taken from ChEMBL document CHEMBL4825755 (J Med Chem, 2021).
